Patent US20040077639A1, “Methods for the treatment of respiratory diseases and conditions using a selective iNOS inhibitor” (priority 2002, published 2004)
pIC50: −log10 of the molar value.

What was measured:
[1] = test system: iNOS activity in human primary airway epithelial cells; assay: Nitrite in media of cytokine-treated human primary airway epithelial cells; assay type: cell-based; settings: 50 ng/ml IL-1β, TNF-α and IFN-γ (cytomix), 24 h; FIG. 1; read-out: IC50 for inhibition of the increase in nitrite in the media
Method: Human primary airway epithelial cell cultures: Human primary airway epithelial cells were cultured as described previously (see Donnelly,L. E. and Barnes, P. J. Am J Respir Cell Mol.Biol 24:295-303 (2000)), and the amount of nitrite, the stable oxidation product of NO, in the cell culture media was measured using a modification of the spectrofluorometric method of Misko et al., Anal. Biochem. […] (1993).
The protein was evenly distributed throughout the cytoplasm in basal cells but clearly located beneath the cilia in the columnar, ciliated cells. Treatment of airway epithelial cells with 50 ng/ml of IL-1β, TNF-α and IFN-γ (cytomix) for 24 h caused an induction of iNOS protein and an increase in the accumulation of nitrite in cell culture media from 2.20±0.2 μM in the absence of cytomix, to 3.5±0.4 μM in the presence of cytomix.
Media was harvested and measured for nitrite content (FIG. 1). Cellular proteins were resolved on 3-8% tris-acetate polyacrylamide gels and immunoblotted for iNOS protein (FIG. 2).
Rather, as expected, it appears to result from inhibition of enzymatic activity.

[2] = test system: iNOS protein expression in human primary airway epithelial cells; assay: Western blotting of iNOS from cultured epithelial cells; assay type: cell-based; settings: cytomix-treated cells; FIG. 2
Method: Westem blotting of INOS from cultured epithelial cells: Following incubation with the cytokine mixture alone or with various concentrations of L-NIL, epithelial cells were lysed in 50 mM Tris/HCl, pH 7.4, containing 0.25 mM ethylene diaminotetraacetic acid, 0.5 mM phenylmethylsulfonyl fluoride, 5 μg/ml antipain, 5 μg/ml leupeptin and 5 μg/ml benzaminidine. The protein concentration was determined using the BioRad protein assay kit according to the manufacturer's instructions. Cell proteins were solubilized in sodium dodecyl sulfate polyacrylamide gel electrophoresis sample buffer ([…] Tris/HCl, pH 6.8, containing 10% v/v glycerol, 1% w/v SDS, 1% w/v β-mercaptoethanol, and 0.01% w/v bromophenol blue). The proteins (15 μg per lane) were resolved by electrophoresis in 3-8% (w/v) Tris-acetate SDS-polyacrylamide gels and transferred to Hybond-Enhanced Chemi-luminescence (ECL) nitro-cellulose membranes. Equal protein loading was determined by staining the blot with 0.1% (w/v) Ponceau S in 5% (v/v) acetic acid. The nitro-cellulose was then blocked overnight at 4° C. in 0.5M Tris-HCl,pH 7.4, containing 3% (w/v) normal goat serum, 1% (w/v) bovine serum albumin and 0.05% (v/v) Tween-20. […]
Media was harvested and measured for nitrite content (FIG. 1). […]

CC(=N)NCCCC[C@H](N)C(=O)O [L-NIL]
pIC50 [1]: ~5.24
effect on iNOS expression as detected by immunoblotting [2]: did not affect
